Legend:
Prothrombin = Prothrombin (Homo sapiens, UniProt P00734)
Description: In vitro inhibitory activity against human coagulation factor II

Coagulation factor X = Coagulation factor X (Homo sapiens, UniProt P00742); assay: In vitro inhibitory activity against human Coagulation factor X
Serine protease 1 = molecular target: T1, Serine protease 1 (Bos taurus, UniProt P00760); assay: In vitro inhibitory activity against bovine cationic trypsin
T1 sequence (P00760 whole entry): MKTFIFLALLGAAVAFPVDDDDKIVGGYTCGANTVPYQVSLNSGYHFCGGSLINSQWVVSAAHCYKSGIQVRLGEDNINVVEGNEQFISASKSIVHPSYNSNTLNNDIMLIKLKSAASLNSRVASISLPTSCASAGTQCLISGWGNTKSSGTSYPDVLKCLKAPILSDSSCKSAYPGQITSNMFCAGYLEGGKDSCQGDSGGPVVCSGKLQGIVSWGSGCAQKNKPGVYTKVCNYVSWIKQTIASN

Homo sapiens = species on record: Homo sapiens; assay: Concentration required to double the prothrombin based clotting time in human plasma; assay type: functional

Chain of Coagulation factor X (P00742 41-179 limits assumed): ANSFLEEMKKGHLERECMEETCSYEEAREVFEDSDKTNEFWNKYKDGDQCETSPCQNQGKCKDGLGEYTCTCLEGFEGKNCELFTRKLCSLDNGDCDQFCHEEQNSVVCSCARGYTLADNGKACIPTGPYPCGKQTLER
Chain of Coagulation factor X (P00742 235-488 limits assumed): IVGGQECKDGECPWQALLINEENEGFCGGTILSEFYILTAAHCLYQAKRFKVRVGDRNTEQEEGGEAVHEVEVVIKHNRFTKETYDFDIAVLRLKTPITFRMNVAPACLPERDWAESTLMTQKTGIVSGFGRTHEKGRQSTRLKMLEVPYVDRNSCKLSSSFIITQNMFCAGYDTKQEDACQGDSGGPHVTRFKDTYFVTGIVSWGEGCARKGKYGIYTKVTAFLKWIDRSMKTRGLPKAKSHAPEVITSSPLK

| Ki (Prothrombin) [nM] | Ki (Coagulation factor X) [nM] | Ki (Serine protease 1) [nM] | SMILES | PT (Homo sapiens) [nM] |
| --- | --- | --- | --- | --- |
| 2000 | 2.8 | 14 | CCCCc1nc2cc(OC3CCN(C(C)=N)CC3)ccc2n1Cc1ccc2ccc(C(=N)N)cc2c1 | – |
| 5000 | 80 | 120 | CC(=N)N1CCC(N(CC(C)C(=O)O)c2ccc3c(c2)nc(C)n3Cc2ccc3ccc(C(=N)N)cc3c2)CC1 (stereo unspecified) | – |
| 810 | 2.9 | 50 | CC(=N)N1CCC(Oc2ccc3ncn(Cc4ccc5ccc(C(=N)N)cc5c4)c3c2)CC1 | 450 |
| 950 | 2 | 18 | CC(=N)N1CCC(Oc2ccc3c(c2)nc(C(C)(C)C)n3Cc2ccc3ccc(C(=N)N)cc3c2)CC1 | – |
| 160 | 0.12 | 10 | CCC(C)c1nc2ccc(OC3CCN(C(C)=N)CC3)cc2n1Cc1ccc2ccc(C(=N)N)cc2c1 (stereo unspecified) | 280 |
| 32 | 0.026 | 5.7 | CC(=N)N1CCC(Oc2ccc3nc(C(C)C)n(Cc4ccc5ccc(C(=N)N)cc5c4)c3c2)CC1 | 68 |
| 230 | 0.23 | 5.7 | CCCCc1nc2ccc(OC3CCN(C(C)=N)CC3)cc2n1Cc1ccc2ccc(C(=N)N)cc2c1 | 625 |
| > 5000 | 6.3 | 8.2 | CC(=N)N1CCC(Oc2ccc3c(c2)ncn3Cc2ccc3ccc(C(=N)N)cc3c2)CC1 | – |
| 5000 | 370 | 800 | CC(=N)N1CCC(N(CCCC(=O)O)c2ccc3c(c2)nc(C)n3Cc2ccc3ccc(C(=N)N)cc3c2)CC1 | – |
| 590 | 1 | 4.4 | CC(=N)N1CCC(Oc2ccc3nc(CCC(N)=O)n(Cc4ccc5ccc(C(=N)N)cc5c4)c3c2)CC1 | – |
| 5000 | 420 | 670 | CC(=N)N1CCC(N(CCCC(=O)O)c2ccc3nc(C)n(Cc4ccc5ccc(C(=N)N)cc5c4)c3c2)CC1 | – |
| – | 2 | 16 | CC(=N)N1CCC(Oc2ccc3c(c2)nc(C(C)C)n3Cc2ccc3ccc(C(=N)N)cc3c2)CC1 | – |
| 230 | – | – | CC(=N)N1CCC(Oc2ccc3nc(C)n(Cc4ccc5ccc(C(=N)N)cc5c4)c3c2)CC1 | 350 |
| 60 | 0.087 | 7.7 | CCc1nc2ccc(OC3CCN(C(C)=N)CC3)cc2n1Cc1ccc2ccc(C(=N)N)cc2c1 | 130 |
| 2670 | 1.3 | 18 | CC(=N)N1CCC(Oc2ccc3nc(CCC(=O)O)n(Cc4ccc5ccc(C(=N)N)cc5c4)c3c2)CC1 | – |
| > 5000 | 5.9 | 14 | CC(=N)N1CCC(Oc2ccc3c(c2)nc(CCC(=O)O)n3Cc2ccc3ccc(C(=N)N)cc3c2)CC1 | – |

| Ki (Prothrombin) [nM] | Ki (Coagulation factor X) [nM] | Ki (Serine protease 1) [nM] | SMILES | PT (Homo sapiens) [nM] |
| --- | --- | --- | --- | --- |
| 98 | 0.3 | 11 | COC(=O)CN(c1ccc2nc(C)n(Cc3ccc4ccc(C(=N)N)cc4c3)c2c1)C1CCN(C(C)=N)CC1 | – |
| 650 | 3 | 47 | CC(=N)N1CCC(N(CC(C)C(=O)O)c2ccc3nc(C)n(Cc4ccc5ccc(C(=N)N)cc5c4)c3c2)CC1 (stereo unspecified) | – |
| 4610 | 300 | 260 | COC(=O)CCCN(c1ccc2nc(C)n(Cc3ccc4ccc(C(=N)N)cc4c3)c2c1)C1CCN(C(C)=N)CC1 | – |
| 5000 | 80 | 160 | COC(=O)C(C)CN(c1ccc2c(c1)nc(C)n2Cc1ccc2ccc(C(=N)N)cc2c1)C1CCN(C(C)=N)CC1 (stereo unspecified) | – |
| 2700 | – | 7.6 | COC(=O)CN(c1ccc2c(c1)nc(C)n2Cc1ccc2ccc(C(=N)N)cc2c1)C1CCN(C(C)=N)CC1 | – |
| 2100 | 4 | 17 | CCc1nc2cc(OC3CCN(C(C)=N)CC3)ccc2n1Cc1ccc2ccc(C(=N)N)cc2c1 | – |
| 300 | 1.1 | 41 | COC(=O)C(C)CN(c1ccc2nc(C)n(Cc3ccc4ccc(C(=N)N)cc4c3)c2c1)C1CCN(C(C)=N)CC1 (stereo unspecified) | – |
| 6000 | 30 | 60 | COC(=O)CCCN(c1ccc2c(c1)nc(C)n2Cc1ccc2ccc(C(=N)N)cc2c1)C1CCN(C(C)=N)CC1 | – |
| 70 | 0.23 | 6.8 | CCCc1nc2ccc(OC3CCN(C(C)=N)CC3)cc2n1Cc1ccc2ccc(C(=N)N)cc2c1 | 290 |
| 2400 | 4.5 | 16 | CCCc1nc2cc(OC3CCN(C(C)=N)CC3)ccc2n1Cc1ccc2ccc(C(=N)N)cc2c1 | – |
| 2300 | 3.3 | 13 | CCC(C)c1nc2cc(OC3CCN(C(C)=N)CC3)ccc2n1Cc1ccc2ccc(C(=N)N)cc2c1 (stereo unspecified) | – |
| 3900 | 6.2 | 16 | CC(=N)N1CCC(Oc2ccc3c(c2)nc(C)n3Cc2ccc3ccc(C(=N)N)cc3c2)CC1 | – |
| > 5000 | 3.6 | 10 | CC(=N)N1CCC(Oc2ccc3c(c2)nc(CCC(N)=O)n3Cc2ccc3ccc(C(=N)N)cc3c2)CC1 | – |
| 490 | 0.46 | 28 | CC(=N)N1CCC(N(CC(N)=O)c2ccc3nc(C)n(Cc4ccc5ccc(C(=N)N)cc5c4)c3c2)CC1 | – |
| 48 | 0.046 | 7 | CC(=N)N1CCC(Oc2ccc3nc(C(C)(C)C)n(Cc4ccc5ccc(C(=N)N)cc5c4)c3c2)CC1 | 260 |

| SMILES | Ki (Prothrombin) [nM] | Ki (Coagulation factor X) [nM] | Ki (Serine protease 1) [nM] | PT (Homo sapiens) [nM] |
| --- | --- | --- | --- | --- |
| CCOC(=O)CCC(=O)N(c1ccc2nc(C)n(Cc3ccc4ccc(C(=N)N)cc4c3)c2c1)C1CCN(C(C)=N)CC1 | 4600 | 300 | 256 | – |
| CC(=N)N1CCC(N(C(=O)CCC(=O)O)c2ccc3nc(C)n(Cc4ccc5ccc(C(=N)N)cc5c4)c3c2)CC1 | 5000 | 417 | 670 | – |
| CCOC(=O)CCC(=O)N(c1ccc2c(c1)nc(C)n2Cc1ccc2ccc(C(=N)N)cc2c1)C1CCN(C(C)=N)CC1 | 5000 | 370 | 800 | – |

From ChEMBL document CHEMBL1133358, “Design, synthesis, and in vitro biological activity of benzimidazole based factor Xa inhibitors” (Bioorg Med Chem Lett, 2000)
